The values below are quoted from earlier work in US20050113452A1, “Composition and dosage form for sustained effect of levodopa” (priority 2003, published 2005).

Each structure is given as a SMILES string.

For this series, the system named is Parkinson's disease patients. Particulars: especially when the two drugs are delivered together, Camicioli et al. 2001.

For `COC(=O)C(c1ccccc1)C1CCCCN1` (stereo not shown) [Methylphenidate, methylphenidate], the “Motor effects when used with levodopa” value is listed as “severe dyskinesia”.
